Here are results for five compounds from ChEMBL document CHEMBL4004803, “Syntheses and antibacterial activity of soluble 9-bromo substituted indolizinoquinoline-5,12-dione derivatives” (Eur J Med Chem, 2017).

What all share (format): functional
In one test the test system is Escherichia coli. Description: Antibacterial activity against Escherichia coli ATCC 25922 after 20 to 24 hrs by two-fold microdilution method. In general terms: In broth dilution the organism is exposed to a series of concentrations in liquid medium.
In test [1] the test system is Staphylococcus aureus. The test is described as follows: Antibacterial activity against […] Staphylococcus aureus ATCC 25923 after 20 to 24 hrs by two-fold microdilution method.
In test [2] the test system is Staphylococcus aureus. Description: Antibacterial activity against methicillin-resistant Staphylococcus aureus ATCC 43300 after 20 to 24 hrs by two-fold microdilution method.
For test [3], the system named is Staphylococcus haemolyticus. Description: Antibacterial activity against Staphylococcus haemolyticus CICC 10373 after 20 to 24 hrs by two-fold microdilution method.
The subject of the next test is Streptococcus pyogenes. The test is described as follows: Antibacterial activity against Streptococcus pyogenes ATCC 19615 after 20 to 24 hrs by two-fold microdilution method.
The subject of another test is Streptococcus pneumoniae. The test is described as follows: Antibacterial activity against Streptococcus pneumoniae ATCC 6305 after 20 to 24 hrs by two-fold microdilution method.
For test [4], the system named is Staphylococcus epidermidis. Description: Antibacterial activity against Staphylococcus epidermidis ATCC 12228 after 20 to 24 hrs by two-fold microdilution method.
Another test concerns Enterococcus faecalis. The test is described as follows: Antibacterial activity against Enterococcus faecalis ATCC 29212 after 20 to 24 hrs by two-fold microdilution method.
The subject of test [5] is Staphylococcus aureus. The test is described as follows: Antibacterial activity against methicillin-resistant Staphylococcus aureus clinical isolate after 20 to 24 hrs by two-fold microdilution method.
For test [6], the system named is Staphylococcus aureus. The test is described as follows: Antibacterial activity against methicillin-resistant Staphylococcus aureus 1026021 clinical isolate after 20 to 24 hrs by two-fold microdilution method.
Test [7] deals with Staphylococcus aureus. Description: Antibacterial activity against methicillin-resistant Staphylococcus aureus 1103006 clinical isolate after 20 to 24 hrs by two-fold microdilution method.
For test [8], the system named is Staphylococcus aureus. Description: Antibacterial activity against methicillin-resistant Staphylococcus aureus 1106003 clinical isolate after 20 to 24 hrs by two-fold microdilution method.
The test system of test [9] is Staphylococcus aureus. The test is described as follows: Antibacterial activity against methicillin-resistant Staphylococcus aureus 111423 clinical isolate after 20 to 24 hrs by two-fold microdilution method.
The subject of test [10] is Staphylococcus aureus. The test is described as follows: Antibacterial activity against methicillin-resistant Staphylococcus aureus 1216052 clinical isolate after 20 to 24 hrs by two-fold microdilution method.

Molecules are shown by their SMILES. Values after ≈ are worked out from the molar mass of the structure shown.

As for `O=C1c2cccnc2C(=O)c2c1c(C(=O)OCCN1CCCC1)c1ccc(Br)cn21`, the MIC – broadly, the lowest concentration that inhibits growth of the organism – worked out at 0.5 µg/mL (≈ 1.07 µM) in the test on Escherichia coli; 0.5 µg/mL (≈ 1.07 µM) against Staphylococcus aureus [1]; 0.5 µg/mL (≈ 1.07 µM) in the test with Staphylococcus aureus [2]; 0.5 µg/mL (≈ 1.07 µM) in [3]; 8 µg/mL (≈ 17.1 µM) with Streptococcus pyogenes; 4 µg/mL (≈ 8.54 µM) against Streptococcus pneumoniae. Further, the MIC in test [4] is 0.031 µg/mL (≈ 0.0662 µM); against Enterococcus faecalis it was 0.5 µg/mL (≈ 1.07 µM).

With `CN[C@H](CC(C)C)C(=O)N[C@H]1C(=O)N[C@@H](CC(N)=O)C(=O)N[C@H]2C(=O)N[C@H]3C(=O)N[C@H](C(=O)N[C@H](C(=O)O)c4cc(O)cc(O)c4-c4cc3ccc4O)[C@H](O)c3ccc(c(Cl)c3)Oc3cc2cc(c3O[C@@H]2O[C@H](CO)[C@@H](O)[C@H](O)[C@H]2O[C@H]2C[C@](C)(N)[C@H](O)[C@H](C)O2)Oc2ccc(cc2Cl)[C@H]1O` [VANCOMYCIN], the MIC50 – broadly, an inhibitory concentration at the 50% level, which refers to growth in some studies and to a panel of isolates in others – against Staphylococcus aureus [5] stood at 1 µg/mL (≈ 0.69 µM). Also, the MIC90 – broadly, an inhibitory concentration at the 90% level, which refers to growth in some studies and to a panel of isolates in others – against Staphylococcus aureus [5] was determined as 2 µg/mL (≈ 1.38 µM). Further, the MIC was 16 µg/mL (≈ 11 µM) in the test with Staphylococcus aureus [6]; greater than 16 µg/mL against Staphylococcus aureus [7]; greater than 16 µg/mL in the test with Staphylococcus aureus [8]; greater than 16 µg/mL against Staphylococcus aureus [9]; greater than 16 µg/mL with Staphylococcus aureus [10].

`O=C1c2cccnc2C(=O)c2c1c(C(=O)OCCO)c1ccc(Br)cn21`: the MIC in the test on Escherichia coli was 4 µg/mL (≈ 9.63 µM); against Staphylococcus aureus [1] it was 0.125 µg/mL (≈ 0.301 µM); in the test on Staphylococcus aureus [2], 0.125 µg/mL (≈ 0.301 µM); in test [3], 0.5 µg/mL (≈ 1.2 µM); in the test on Streptococcus pyogenes it was 8 µg/mL (≈ 19.3 µM); against Streptococcus pneumoniae, 8 µg/mL (≈ 19.3 µM). Further, the MIC in [4] amounted to 0.125 µg/mL (≈ 0.301 µM); in the test on Enterococcus faecalis, 0.25 µg/mL (≈ 0.602 µM).

With `O=C1c2cccnc2C(=O)c2c1c(C(=O)OCCCCCN1CCCC1)c1ccc(Br)cn21`, the MIC in the test with Escherichia coli was 2 µg/mL (≈ 3.92 µM); against Staphylococcus aureus [1], 0.5 µg/mL (≈ 0.98 µM); against Staphylococcus aureus [2], 0.5 µg/mL (≈ 0.98 µM); in test [3], 0.25 µg/mL (≈ 0.49 µM); against Streptococcus pyogenes it was 8 µg/mL (≈ 15.7 µM); in the test on Streptococcus pneumoniae, 1 µg/mL (≈ 1.96 µM). The MIC in test [4] was no more than 0.0078 µg/mL; with Enterococcus faecalis, 0.5 µg/mL (≈ 0.98 µM).

Turning to `O=C1c2cccnc2C(=O)c2c1c(C(=O)OCCCN1CCCC1)c1ccc(Br)cn21`, the MIC came out at 0.5 µg/mL (≈ 1.04 µM) with Escherichia coli; 2 µg/mL (≈ 4.15 µM) against Staphylococcus aureus [1]; 1 µg/mL (≈ 2.07 µM) in the test on Staphylococcus aureus [2]; 2 µg/mL (≈ 4.15 µM) in test [3]; 8 µg/mL (≈ 16.6 µM) against Streptococcus pyogenes; 4 µg/mL (≈ 8.29 µM) with Streptococcus pneumoniae. In addition, the MIC in [4] was 0.25 µg/mL (≈ 0.518 µM); against Enterococcus faecalis, 1 µg/mL (≈ 2.07 µM).
